Reference: patent publication US20090087871A1, “Method for Identifying PDE5-Modulators” (Atlanta Pharma AG, priority 2004, published 2009)
Entries after “also recorded” stand apart in the source; their conditions may differ.

Legend:
PDE5/CyaB1-chimera = assay: adenylate cyclase activity of PDE5/CyaB1-chimera (conversion of [α-32P]-ATP to cAMP); assay type: biochemical, human; settings: in the presence of cGMP; FIG. 6
Procedure: The adenylate cyclase activity of the PDE5/CyaB1-chimera is measured with and without the test substance. […] The incubation time should be between 1 and 120 min, the incubation temperature between 20 and 45° C., the Mg^2+-cofactor concentration between 1 and 20 mM (corresponding amounts of Mn^2+ may also be used as a cofactor) and the ATP concentration between 0.5 μM and 5 mM. An increase in the conversion with the substance compared to without the substance indicates a GAF-agonistic effect. If conversion is inhibited by adding the substance, this indicates a GAF-antagonistic effect of the substance. A GAF antagonism can also be measured via blockage of activation of PDE5/CyaB1-chimera by the native GAF ligand cGMP. In addition, the conversion at rising or fixed cGMP concentration is measured with and without the substance. If the conversion rates with the substance are below those without the substance, this indicates GAF antagonism of the substance. […]
The protein samples and the cocktail are measured in 1.5 mL reaction containers on ice, the reaction with ATP is started, and incubation is carried for 10 minutes at 37° C.
Each test mixture is carried in duplicate. […] With a test mixture without substance and cGMP, the basal enzyme activity is determined. […]
The inhibition or activation of the enzyme by the substance is calculated as % basal value according to the following formula: […]

PDE5 = PDE5 (Homo sapiens, UniProt O76074); settings: cited from earlier work

Row | Compound | PDE5-antagonistic effect via binding to the GAF domain of PDE5 (PDE5/CyaB1-chimera) | increase of the activity of PDE5 via cGMP binding to the GAF tandem (PDE5)
1 | CCCc1nn(C)c2c(=O)[nH]c(-c3cc(S(=O)(=O)N4CCN(C)CC4)ccc3OCC)nc12 [Sildenafil] | None of the measured PDE5 inhibitors shows a PDE5-antagonistic effect; also recorded: None of the measured PDE5 inhibitors showed a PDE5-antagonistic action | –
2 | Nc1nc2c(ncn2[C@@H]2O[C@@H]3COP(=O)(O)O[C@H]3[C@H]2O)c(=O)[nH]1 [cGMP] | – | tenfold
